Assay results: paper PMC6598159 (ACS Central Science, 2019)

Assay: CYP reaction phenotyping in HLM with selective CYP inhibitors
Conditions: ketoconazole 1 or 10 μM; ticlopidine 20 μM; mitragynine 2 μM

CC(=O)N1CCN(c2ccc(OCC3COC(Cn4ccnc4)(c4ccc(Cl)cc4Cl)O3)cc2)CC1 (centres unmarked) [ketoconazole]
effect on decomposition of mitragynine in HLM: robustly inhibited | effect on formation of 7-OH from mitragynine in HLM: robustly inhibited
